Reference: US4125538A, “Substituted 5-phenyl-2,3,4,5-tetrahydro-1,4-benzoxazepines” (Bristol-Myers Company, priority 1977, dated 1978)
Counter-ions that a name gives are not always drawn. Like-named read-outs stand apart in the source and are kept apart here.

How the values were obtained:
[1] = system: cough response in male guinea-pigs; assay: Antitussive activity in male guinea-pigs (electrically stimulated cough); format: in vivo, guinea-pig; conditions: for inhibition in vivo at 10 mg/kg: Cavia porcellus, sc, 10 mg./kg. subcutaneously, cough tested at 30, 60 and 120 min, values of 30 or less not significantly different from saline controls, considered inactive or insufficiently active; for antitussive activity (in words): guinea pig, in vivo
Description: Compounds of formula I, and homologous and analogous compounds, were also tested for antitussive activity in male guinea-pigs, using a modification of the procedure of Friebel and Hahn [Med. Pharmacol. exp., 14, 78 (1966)]. Under general anesthesia, two stainless steel wires (0.2 mm diameter), stripped of their enamel insulation at the points of contact with the trachea, were wrapped around the trachea about 8 mm apart and then threaded under the skin and out through the back of the neck, one on each side. After 24 hrs, test animals were placed in a clear plastic cage and the cough threshold was determined by means of electrical stimulation. The following stimulation parameters were used: delay -- 0.01 msec, duration -- 0.6 msec and frequency -- 300 Hz. The minimal voltage (range 60-120 V) necessary to elicit a cough in less than 6 sec was determined. Each guinea-pig was stimulated 5 times at 30 sec intervals employing the predrug stimulation parameters at 30, 60 and 120 min following drug administration. A test animal was considered to be protected if more than 6 sec were required to produce a cough. Compounds were administered at a dosage of 10 mg./kg. subcutaneously. The percent inhibition of cough response was calculated as follows: % Inhibition = (A-B)/(A) × 100 a = number of coughs requiring <6 sec. stimulation after saline. B = number of coughs requiring <6 sec. stimulation after drug.

[2] = system: phenylquinone-induced writhing in the mouse; assay: Phenylquinone-induced writhing test in the mouse; format: in vivo; conditions: for ED50: Mus musculus; for analgesic activity (in words): mouse, in vivo
Description: Compounds of formula I, and homologous and analogous compounds, were tested for analgesic activity by means of the phenylquinone-induced writhing test in the mouse, using the known analgesic, nefopam (5 methyl-1-phenyl-3,4,5,6-tetrahydro-1H-2,5-benzoxazocine), as a comparison standard. The method used was essentially that described by Siegmund et al. [Proc. Soc. exp. Biol. N. Y. 95, 729 (1957)]. Compounds were administered either subcutaneously (15 min) or orally (25 min) prior to the intraperitoneal injection of phenylquinone (2 mg/kg). […] The dose which produced a 50 percent reduction in the number of writhes, as compared to the control group, was called the ED50.
BL-R845 and nefopam were compared in additional phenylquinone-induced writhing tests in the mouse and rat, by various routes of administration.

[3] = system: phenylquinone-induced writhing in the rat; assay: Phenylquinone-induced writhing test in the rat; format: in vivo; conditions: Table 4, rats
Excerpt: BL-[…] and nefopam were compared in additional phenylquinone-induced writhing tests in the mouse and rat, by various routes of administration.

rat tail flick = assay: Rat tail flick (thermal analgesic test); format: in vivo; conditions: conventional thermal analgesic test
Excerpt: (§1) The analgesic profile for BL-[…] and nefopam resembles that of the narcotic antagonist analgesics rather than the narcotic drugs. […] Nevertheless,both BL-[…] and nefopam differ from the antagonist action of naloxone. […] These findings indicate that BL-[…] and nefopam act on different receptor sites from those affected by the antagonist analgesics.

rodent writhing = assay: Rodent writhing tests; conditions: in vivo
Excerpt: as §1, with “BL-[…] and nefopam were compared in additional phenylquinone-induced writhing tests in the mouse and rat, by various routes of administration. The analgesic” for “The analgesic”

mouse hot plate = assay: Mouse hot plate (thermal analgesic test); format: in vivo; conditions: conventional thermal analgesic test
Excerpt: as §1

[4] = system: analgesic activity, naloxone antagonism; assay: Block of analgesic activity by naloxone; format: in vivo; conditions: naloxone as antagonist
Excerpt: as §1

cough in dogs = assay: Antitussive activity in the dog (method of Stefko and Benson); conditions: for ED50: Canis lupus familiaris
[5] = sc, Table 1, s.c. 15 min before phenylquinone 2 mg/kg i.p., 50 percent reduction in number of writhes vs control, read-out: ED50
[6] = oral, read-out: Phenylquinone-induced Writhing ED50, rats, oral
[7] = sc, subcutaneous, read-out: Phenylquinone-induced Writhing ED50, rats, subcutaneous
[8] = central, Table 4, mice, intraventricular, read-out: Phenylquinone-induced Writhing ED50, mice, intraventricular
[9] = sc, Table 4, mice, subcutaneous, read-out: Phenylquinone-induced Writhing ED50, mice, subcutaneous
[10] = Table 4, mice, oral, read-out: Phenylquinone-induced Writhing ED50, mice, oral
[11] = po, read-out: ED50, antitussive, oral
[12] = sc, read-out: ED50, antitussive, s. c.

| Structure (SMILES) | inhibition in vivo at 10 mg/kg [1] | antitussive activity (in words) [1] | ED50 [2, 5] | analgesic activity (in words) [2] | ED50 (cough in dogs; [11]) | ED50 (cough in dogs; [12]) | further results |
| --- | --- | --- | --- | --- | --- | --- | --- |
| CNCCN1CCOc2ccc(Cl)cc2C1c1ccccc1 (stereo not shown) [BL-5366, 7-Chloro-4-(2-methylaminoethyl)-5-phenyl-2,3,4,5-tetrahydro-1,4,-benzoxazepine dihydrochloride] | 0% | little or no such activity | 13 mg/kg | little or no such activity |  |  |  |
| CCN(CC)CCN1CCOc2ccc(Cl)cc2C1c1ccccc1.Cl.Cl (stereo not shown) [BL-5372, 7-Chloro-4-(2-diethylaminoethyl)-5-phenyl-2,3,4,5-tetrahydro-1,4-benzoxazepine dihydrochloride] | 0% | little or no such activity | 10 mg/kg | little or no such activity |  |  |  |
| Cl.Cl.Clc1ccc2c(c1)C(c1ccccc1)N(CCN1CCCC1)CCO2 (stereo not shown) [BL-5397, 7-Chloro-4-(2-pyrrolidinoethyl)-5-phenyl-2,3,4,5-tetrahydro-1,4-benzoxazepine dihydrochloride] | 0% |  | 2.5 mg/kg | valuable analgesic activity |  |  |  |
| Cl.Cl.Clc1ccc2c(c1)C(c1ccccc1)N(CCN1CCOCC1)CCO2 (stereo not shown) [BL-5405, 7-Chloro-4-(2-morpholinoethyl)-5-phenyl-2,3,4,5-tetrahydro-1,4-benzoxazepine dihydrochloride] | 30% |  | > 40 mg/kg |  |  |  |  |
| Cl.Cl.Clc1ccc2c(c1)C(c1ccccc1)N(CCN1CCCCC1)CCO2 (stereo not shown) [BL-5409, 7-Chloro-4-(2-piperidinoethyl)-5-phenyl-2,3,4,5-tetrahydro-1,4-benzoxazepine dihydrochloride] | 0% |  | 9 mg/kg |  |  |  |  |
| CN1CCN(CCN2CCOc3ccc(Cl)cc3C2c2ccccc2)CC1.Cl.Cl.Cl (stereo not shown) [BL-5451, 7-Chloro-4-[2-(4-methylpiperazino)ethyl]-5-phenyl-2,3,4,5-tetrahydro-1,4-benzoxazepine trihydrochloride] | 0% |  | 19 mg/kg |  |  |  |  |
| CN(C)CCN1CCOc2ccc(Cl)cc2C1c1ccccc1.Cl.Cl (stereo not shown) [BL-R845, 7-Chloro-4-(2-dimethylaminoethyl)-5-phenyl-2,3,4,5-tetrahydro-1,4-benzoxazepine dihydrochloride] | 48% | effective analgesic and antitussive agent |  | effective analgesic | 2 to 5 mg/kg | 0.2 to 0.5 mg/kg | ED50 [3, 6]: 12.8 mg/kg; ED50 [3, 7]: 1 mg/kg; analgesic activity, rat tail flick (rat tail flick): relative lack of analgesic activity; ED50 [2, 8]: 0.31 mg/kg; ED50 [2, 9]: 1.3 mg/kg; ED50 [2, 10]: 11.6 mg/kg; activity in the rodent writhing tests (rodent writhing): good activity; analgesic activity, mouse hot plate (mouse hot plate): relative lack of analgesic activity; effect of naloxone on analgesic activity [4]: does not block the analgesic activity; antitussive activity compared with nefopam or codeine (cough in dogs; dog, both routes of administration): more active than nefopam or codeine |
| COc1ccc2c3c1O[C@H]1[C@@H](O)C=C[C@H]4[C@@H](C2)N(C)CC[C@@]341 [codeine] |  |  |  |  | 7.8 mg/kg | 1.5 mg/kg |  |
| CN1CCOC(c2ccccc2)c2ccccc2C1 (stereo not shown) [nefopam, 5 methyl-1-phenyl-3,4,5,6-tetrahydro-1H-2,5-benzoxazocine, reference compound] | 0% |  |  |  | > 20 mg/kg | 2 to 5 mg/kg | ED50 [3, 6]: 9.6 mg/kg; ED50 [3, 7]: 1 mg/kg; analgesic activity, rat tail flick (rat tail flick): relative lack of analgesic activity; ED50 [2, 8]: 0.14 mg/kg; ED50 [2, 9]: 1.1 mg/kg; ED50 [2, 10]: 22 mg/kg; activity in the rodent writhing tests (rodent writhing): good activity; analgesic activity, mouse hot plate (mouse hot plate): relative lack of analgesic activity; effect of naloxone on analgesic activity [4]: does not block the analgesic activity |
